The record followed here is EP4567031A1, “HPK1 INHIBITOR, PREPARATION METHOD THEREFOR, AND USE THEREOF” (Beijing Earthwise Technology Co., Ltd., priority 2022, dated 2024).

The structures appear in SMILES notation.

The subject of the first experiment is human Pan T cells. Description: Human Pan T cell IL-2 ELISA. To be noted: Anti-CD3 and Anti-CD28, 48 hours, supernatant IL-2 ELISA, read-out: IL-2 release, EC50. It counts as cell-based. How it is done:
A compound was dissolved in DMSO to 10 mM, and then diluted three-fold with DMSO to 9 dosages in a 96-well plate. Then, 10 µL of the diluted compound sample was transferred to a 96-well plate with 90 µL of cell culture medium, and the plate was shaken for 5 minutes. Then, 5 µL of the diluted compound sample was transferred to a 96-well plate with 120 µL of cell culture medium, and the plate was shaken for 5 minutes. According to the experimental design diagram, 50 µL of the diluted compound sample was transferred to a cell plate. Final concentrations of the compound in this assay were 10000.00, 5000, 2500, 1250, 625, 312.5, 156.25, 78.125 and 39.063 nM.
The assay was conducted in a 96-well plate. On the first day of the assay, Anti-CD3 was added to the 96-well plate and incubated in a 4 °C refrigerator overnight. On the second day of the assay, human Pan T cells were recovered, centrifuged and counted. The cell density was adjusted to 1*10^6 cells/ml. Then, 100 µL of cells were added to the 96-well plate washed with PBS and added with Anti-CD3; according to the experimental design diagram, 50 µL of diluted Anti-CD28 and 50 µL of the diluted compound were added to each well, centrifuged, and the cell plate was placed and incubated in an incubator for 48 hours; after 48 hours, the plate was centrifuged and the supernatant was collected for IL-2 ELISA.
The signal value of light absorption was converted into a multiple. Multiple = sample value/the average value of control wells. The average value of control wells refers to the value measured in wells with DMSO added. EC50 values were calculated by XLFit (version 5.3.1.3) in Excel. Equation: Y=Bottom + (Top-Bottom) / (1 + (EC50/X) ^ HillSlope). Table 6. Results of cellular activity of the compounds
Turning to `COC1CCc2c(-c3cc4c(c5c3CNC5=O)Nc3ccc(N5CCOCC5)cc3C4(C)C)cncc21` (single isomer, unassigned) [Example 202], the EC50 (commonly the concentration that produces a half-maximal response) was found to be 8.7 nM.
Take `CC1CCCn2c(-c3cc4c(c5c3CNC5=O)Nc3ccc(N5CCOCC5)cc3C4(C)C)cnc21` (single isomer, unassigned) [Example 219]: the EC50 was 8.1 nM.
Same read-out and setting: as for `CCC1(C)c2cc(N3CCOCC3)ccc2Nc2c1cc(-c1cnc3c(OC)nccn13)c1c2C(=O)NC1` (single isomer, unassigned) [Example 213], the figure is 19 nM; as for `CC1CCCn2c(-c3cc4c(c5c3CNC5=O)Nc3ccc(N5CCOCC5)cc3C4(C)C)cnc21` (single isomer, unassigned) [Example 218], 19 nM; as for `COC1CCn2c(-c3cc4c(c5c3CNC5=O)Nc3ccc(N5CCOCC5)cc3C4(C)C)cnc21` (single isomer, unassigned) [Example 230], 7.6 nM.
For the molecule `CC1(C)c2cc(N3CCOCC3)ccc2Nc2c1cc(-c1cnc3n1CCC(C(F)F)C3)c1c2C(=O)NC1` (single isomer, unassigned) [Example 239], the half-maximal effective concentration (EC50) stood at 7.5 nM.
In the case of `COC1CCCn2c(-c3cc4c(c5c3CNC5=O)Nc3ccc(N5CCOCC5C)cc3C4(C)C)cnc21` (single isomer, unassigned) [Example 180], the half-maximal effective concentration (EC50) worked out at 27 nM.
In the case of `COC1CCCn2c(-c3cc4c(c5c3CNC5=O)Nc3ccc(N5CCOCC5C)cc3C4(C)C)cnc21` (single isomer, unassigned) [Example 181], the 50% effective concentration (EC50) turned out to be 26 nM.

The same experiment, now with this note: Homo sapiens, T-cell, 48 h, Anti-CD3 and Anti-CD28, supernatant IL-2 ELISA, read-out: IL-2 release, EC50.
In the case of `Cn1ccc2c(-c3cc4c(c5c3CNC5=O)Nc3ccc(N5CCOCC5)cc3C4(C)C)ccnc21` [Example 42], the half-maximal effective concentration (EC50) came to 14.2 nM.
Still for that read-out and setting: as for `CC1(C)c2cc(N3CCOCC3)ccc2Nc2c1cc(-c1cnn3cc(C#N)ccc13)c1c2C(=O)NC1` [Example 237], the figure is 8.7 nM; as for `CC1(C)c2cc(N3CCOCC3)ccc2Nc2c1cc(-c1cnc3c(OC(F)F)nccn13)c1c2C(=O)NC1` [Example 172], 8.1 nM.
Consider `CC1(C)c2cc(-c3cnc4cc(F)ccn34)c3c(c2Nc2ccc(N4CCOC(C(C)(C)O)C4)c(F)c21)C(=O)NC3` (centres unmarked) [Example 124], for which the EC50 stood at 15.7 nM.
For `Cn1cnc2c(-c3cc4c(c5c3CNC5=O)Nc3ccc(N5CCOCC5)cc3C4(C)C)cncc21` [Example 248], the EC50 came to 1.9 nM.
Regarding `Cn1c(-c2cc3c(c4c2CNC4=O)Nc2ccc(N4CCOC(C(C)(C)O)C4)cc2C3(C)C)cnc1C1CCOCC1` (single isomer, unassigned) [Example 141], the concentration giving a half-maximal response (EC50) worked out at 87.3 nM.
Turning to `CC1(C)c2cc(N3CCOCC3)ccc2Nc2c1cc(-c1cnc3c(N4CCC4)nccn13)c1c2C(=O)NC1` [Example 211], the EC50 is 55 nM.
Same read-out and setting: with `CC1(C)c2cc(-c3cnn4cccnc34)c3c(c2Nc2cc(F)c(N4CCOCC4)c(F)c21)C(=O)NC3` [Example 116] the figure was 65.2 nM; with `CCc1ncc(-c2cc3c(c4c2CNC4=O)Nc2ccc(N4CCOC(C(C)(C)O)C4)cc2C3(C)C)n1C` (single isomer, unassigned) [Example 134], 19.5 nM.
With `CC1(C)c2cc(N3CCO[C@@H](C(C)(C)O)C3)ccc2Nc2c1cc(-c1cnn3cc(C(F)F)ccc13)c1c2C(=O)NC1` [Example 169], the EC50 is 6.4 nM.
With `Cc1ccn2c(-c3cc4c(c5c3CNC5=O)Nc3ccc(N5CCOC(C(C)(C)O)C5)cc3C4(C)C)cnc2c1` (single isomer, unassigned) [Example 106], the concentration for a half-maximal effect (EC50) was 18.3 nM.
Consider `CCOc1ccc2c(-c3cc4c(c5c3CNC5=O)Nc3ccc(N5CCOC(C(C)(C)O)C5)cc3C4(C)C)cnn2c1` (single isomer, unassigned) [Example 151], for which the concentration giving a half-maximal response (EC50) is 68.8 nM.
For `Cc1c(-c2cc3c(c4c2CNC4=O)Nc2ccc(N4CCOCC4)cc2C3(C)C)cnc2c1NCCO2` [Example 251], the 50% effective concentration (EC50) came out at 6.4 nM.
With `Cc1ccn2c(-c3cc4c(c5c3CNC5=O)Nc3ccc(N5CCOCC5)cc3C4(C)C)cnc2n1` [Example 185], the EC50 is 2.2 nM.
In the case of `COc1ccc2c(-c3cc4c(c5c3CNC5=O)Nc3ccc(N5CCOC(C(C)(C)O)C5)cc3C4(C)C)cnn2c1` (single isomer, unassigned) [Example 157], the EC50 is 6.47 nM.
For the molecule `CC1(C)c2cc(N3CCOC(C(C)(C)O)C3)ccc2Nc2c1cc(-c1cnc3cc(Cl)ccn13)c1c2C(=O)NC1` (centres unmarked) [Example 100], the 50% effective concentration (EC50) came to 13.1 nM.
Regarding `CC1(C)c2cc(N3CCOCC3)ccc2Nc2c1cc(-c1cnc3c(F)c(C#N)ccn13)c1c2C(=O)NC1` [Example 198], the half-maximal effective concentration (EC50) is 5.3 nM.
With `CCOC1CCCn2c(-c3cc4c(c5c3CCNC5=O)Nc3ccc(N5CCOCC5)cc3C4(C)C)cnc21` (single isomer, unassigned) [Example 281], the EC50 worked out at 18 nM.
Take `COC1CCCn2c(-c3cc4c(c5c3CNC5=O)Nc3ccc(N5CCC(O)CC5)cc3C4(C)C)cnc21` (single isomer, unassigned) [Example 243]: the EC50 turned out to be 13 nM.
On the same count and under the same terms, as for `CC1(C)c2cc(N3CCOCC3)ccc2Nc2c1cc(-c1cnc3cc(C#N)ccn13)c1c2C(=O)NC1` [Example 165], the figure is 4.8 nM.
In the case of `CC1(C)c2cc(N3CCOCC3)ccc2Nc2c1cc(-c1cnc3c(F)c(C(F)F)ccn13)c1c2C(=O)NC1` [Example 193], the EC50 came out at 9.5 nM.
On the same count and under the same terms, with `CC1(C)c2cc(N3CCOC(C(C)(C)O)C3)ccc2Nc2c1cc(-c1cncc3c1OCCN3)c1c2C(=O)NC1` (centres unmarked) [Example 111] the figure was 30.8 nM; with `COc1ccn2c(-c3cc4c(c5c3CNC5=O)Nc3ccc(N5CCOCC5)cc3C4(C)C)cnc2n1` [Example 189], 5.7 nM; with `Cc1c(-c2cc3c(c4c2CNC4=O)Nc2ccc(N4CCOC(C(C)(C)O)C4)cc2C3(C)C)cnn1C1CC1` (single isomer, unassigned) [Example 148], 21.8 nM.
For `CC1(C)c2cc(N3CCOCC3)ccc2Nc2c1cc(-c1cnc3n1CCCC3O)c1c2C(=O)NC1` (single isomer, unassigned) [Example 227], the EC50 was 6.4 nM.
As to `COC1CCCn2c(-c3cc4c(c5c3CNC5=O)Nc3ccc(N5C6CCC5COC6)cc3C4(C)C)cnc21` (single isomer, unassigned) [Example 152], the concentration giving a half-maximal response (EC50) was determined as 34.6 nM.
Still for that read-out and setting: as for `CC1(C)c2cc(N3CCOCC3)ccc2Nc2c1cc(-c1cnc3n1CCCC3OC1CC1)c1c2C(=O)NC1` (single isomer, unassigned) [Example 187], the figure is 15 nM; as for `COC1CCCn2c(-c3cc4c(c5c3CNC5=O)Nc3ccc(C5CCOCC5)cc3C4(C)C)cnc21` (single isomer, unassigned) [Example 163], 25 nM; as for `COc1nccn2c(-c3cc4c(c5c3CNC5=O)Nc3ccc(N5CCOCC5C)cc3C4(C)C)cnc12` (single isomer, unassigned) [Example 244], 9.8 nM.
With `CC1(C)c2cc(N3CCOC(C(C)(C)O)C3)ccc2Nc2c1cc(-c1cnc3n1CCCCC3)c1c2C(=O)NC1` (centres unmarked) [Example 123], the EC50 was found to be 20.3 nM.
In the case of `Cn1c(-c2cc3c(c4c2CNC4=O)Nc2ccc(N4CCOC(C(C)(C)O)C4)cc2C3(C)C)cnc1OC1CCOC1` (single isomer, unassigned) [Example 153], the EC50 was determined as 46.8 nM.
Turning to `CC1(C)c2cc(N3CCOCC3)ccc2Nc2c1cc(-c1cnc3cnccn13)c1c2C(=O)NC1` [Example 156], the EC50 was determined as 2.76 nM.
For `CC1(C)c2cc(N3CCOCC3)ccc2Nc2c1cc(-c1cnc3c(OC4CC4)nccn13)c1c2C(=O)NC1` [Example 199], the concentration giving a half-maximal response (EC50) worked out at 24 nM.
For the molecule `CC1(C)c2cc(N3CCOCC3)ccc2Nc2c1cc(-c1cnc3c(C4COC4)nccn13)c1c2C(=O)NC1` [Example 188], the EC50 was found to be 73 nM.
Consider `COC1CCCn2c(-c3cc4c(c5c3CNC5=O)Nc3ccc(N5CCOC(C(C)(C)O)C5)cc3C4(C)C)cnc21` (centres unmarked) [Example 102], for which the EC50 worked out at 10.8 nM.
For the molecule `CC1(C)c2cc(N3CCOCC3)ccc2Nc2c1cc(-c1cnc3cc(OC4COC4)ccn13)c1c2C(=O)NC1` [Example 217], the half-maximal effective concentration (EC50) was 19 nM.
In the case of `COc1ccn2c(-c3cc4c(c5c3CNC5=O)Nc3ccc(N5CCOCC5)cc3C4(C)C)cnc2c1F` [Example 225], the concentration for a half-maximal effect (EC50) stood at 8.1 nM.
Turning to `CC1(C)c2cc(N3CCOCC3)ccc2Nc2c1cc(-c1cnc3nc(C(F)F)ccn13)c1c2C(=O)NCC1` [Example 282], the EC50 worked out at 44 nM.
On to `CC1(C)c2cc(N3CCOC(CO)C3)ccc2Nc2c1cc(-c1cnc3cc(F)ccn13)c1c2C(=O)NC1` (centres unmarked) [Example 108], for which the EC50 amounted to 5.58 nM.
`CC1(C)c2cc(N3CCOCC3)ccc2Nc2c1cc(-c1cnc3cc(C#N)cnn13)c1c2C(=O)NC1` [Example 246]: the EC50 worked out at 9.2 nM.
For `CC1(C)c2cc(N3CCOCC3)ccc2Nc2c1cc(-c1cnc3c(C#N)nccn13)c1c2C(=O)NC1` [Example 192], the EC50 was found to be 19 nM.
Regarding `COC1CCCn2c(-c3cc4c(c5c3CNC5=O)Nc3ccc(N5CCOCC5)nc3C4(C)C)cnc21` (single isomer, unassigned) [Example 25], the EC50 came out at 33.4 nM.
